# From patent US12383569B2, “Immunomodulatory oligosaccharides for the treatment of pain” (Intrinsic Medicine, Inc., priority 2019, dated 2025)
# Entries after “also recorded” stand apart in the source; their conditions may differ.
# Tests used:
# [1] = tested on: IL-6 mRNA in RAW 264.7 cells; experiment: IL-6 mRNA expression in LPS-stimulated macrophages (RT-PCR); type: cell-based, murine; details: LPS-activated macrophages, single oligosaccharide, 6 hours
# Method: (§1) RAW246.7 cells were exposed to LPS either alone or in combination with either pooled human milk oligosaccharides (HMOs), or 3′-sialyllactose (3′SL) or 2′-fucosyllactose (2′FL). After 6 hours, IL-6 (A) and IL-1β (B) mRNA levels were measured by RT-PCR and are plotted as mean±standard deviation (n=8) relative the respective mRNA levels in cells that were exposed to LPS alone (**p<0.01; ***p<0.001). HMOs are a group of more than 150 different structurally distinct oligosaccharides and their composition follows a basic structural blueprint (C), containing five monosaccharide building blocks: glucose (dark gray circle), galactose (light gray circle), N-acetylglucosamine (dark gray square), fucose (gray triangle) and sialic acid (gray diamond). 3′SL contains lactose with sialic acid at the terminal end; 2′FL contains lactose with fucose at the terminal end.
# (§2) Oligosaccharides Reduce Pro-Inflammatory Cytokine mRNA Expression in Stimulated Macrophages. HMOs were first isolated and purified from pooled human donor milk (pHMO) by using polymixin B affinity chromatography to remove any lipopolysaccharide (LPS) contamination. RAW 264.7 cells, a murine macrophage cell line, were then incubated with LPS (10 ng/mL) and pHMO (500 μg/mL) for 6 hours. RT-PCR was used to measure cytokine mRNA expression. […]
# [2] = tested on: IL-1β mRNA in RAW 264.7 cells; experiment: IL-1β mRNA expression in LPS-stimulated macrophages (RT-PCR); type: cell-based, murine; details: LPS-activated macrophages, single oligosaccharide, 6 hours
# Method: as §1, §2
# [3] = tested on: IL-6 and IL-1β mRNA expression; experiment: Dose-range finding for reduction of IL-6 and IL-1β mRNA expression in stimulated macrophages; type: cell-based; details: Macrophage, dose-range finding studies
# Source text: A multi-dimensional chromatography approach was used that separates pHMO first by charge and then by size. […] To exclude that the observed effect was due to impurities or contaminations from the isolation process, the results were confirmed with synthetized and commercially available 3′SL. […] Other oligosaccharides like 2′-fucosyllactose (2′FL), where the terminal monosaccharide is fucose instead of sialic acid (see FIG. 1C), had no effect, emphasizing that the anti-inflammatory effect of 3′ SL in macrophages is specific to the structure of 3′SL.
# [4] = tested on: bone marrow derived macrophages; experiment: Pro-inflammatory cytokine expression in primary mouse cells; type: cell-based
# Source text: (§3) Accordingly, the results with 3′SL translate to primary cells as well as to human macrophages.
# [5] = tested on: THP-1 monocytic cell line; experiment: Pro-inflammatory cytokine expression in human monocytic cell line; type: cell-based; details: human THP-1 monocytic cell line
# Source text: as §3
# [6] = tested on: collagen antibody-induced arthritis (CAIA) mouse model; experiment: Collagen antibody-induced arthritis (CAIA) model; type: in vivo, BALB/c mice; details: for histology score for cartilage damage / histology score for erosion / histology score for inflammation: hind paws, day 14, scored 0 to 4
# Method: Next, it was asked whether or not the in vitro results translate to an in vivo model. 3′ SL efficacy in a collagen antibody-induced arthritis (CAIA) model was tested in mice. In the CAIA model, arthritis is induced by systemic administration of a cocktail of monoclonal antibodies that target various regions of collagen type II, which is one of the major constituents of articular cartilage matrix proteins, followed by the administration of endotoxin (LPS) on day 3. The high uptake rate in the CAIA model and the capacity to synchronize the development of arthritis from the time of antibody injection, makes this a relatively straightforward model that is used to address questions of pathogenic mechanisms and to screen candidate therapeutic agents. 8-week old female BALB/c mice were injected with 1.5 mg of Arthrogen-CIA monoclonal antibody cocktail (Chondrex, Inc.).
# Three days later, the mice were injected with 25 μg of LPS. Beginning with the time of LPS administration and followed for the next 11 consecutive days, mice were orally gavaged thrice daily with either 3′ SL (20 mg in saline) or saline alone as control. With the tester blinded to the study groups, arthritis in each limb was determined once per day. […] By adding together, the scores of all four limbs, the maximum score per mouse is 28. In addition, a caliper was placed across the ankle joint at the widest point to measure ankle thickness in both hind limbs daily. 14 days after antibody cocktail administration, mice were euthanized, and hind paws collected and processed for histology. H&E—as well as Toluidine blue-stained sections were scored from 0 to 4 for inflammation, bone erosion and cartilage depletion based on a previously validated scoring system.
# [7] = tested on: acetic acid-induced writhing; experiment: Acetic acid-induced writhing test; type: in vivo; details: mice pretreated by oral or intravenous administration prior to acetic acid
# [8] = CAIA mice, oral gavage 20 mg thrice daily from LPS trigger, vs saline
# [9] = oral gavage 20 mg thrice daily, listed as 3′ SL
structure (smiles),measurement,setting,value
"CC(=O)N[C@H]1C([C@H](O)[C@H](O)CO)O[C@@](O[C@@H]2C(O)[C@H](O[C@@H]3C(CO)O[C@@H](O)C(O)[C@H]3O)OC(CO)[C@@H]2O)(C(=O)O)C[C@H]1O (stereo partly drawn) [3′SL, 3′-sialyllactose]",reduction of IL-6 mRNA expression,[1],most effective; also recorded: reduces
same,reduction of IL-1β mRNA expression,[2],most effective; also recorded: reduces
same,IC50,[3],~15 µg/mL
same,pro-inflammatory cytokine expression,[4],reduced pro-inflammatory cytokine expression
same,pro-inflammatory cytokine expression,[5],reduced pro-inflammatory cytokine expression
same,Baseline-corrected ankle thickness (paw swelling),[6]; [8],significantly reduced; also recorded: reduces
same,clinical index score 28,[6]; [8],significantly reduced; also recorded: reduces
same,histology score for cartilage damage,[6]; oral gavage 20 mg thrice daily,significantly lower
same,histology score for erosion,[6]; oral gavage 20 mg thrice daily,significantly lower
same,histology score for inflammation,[6]; oral gavage 20 mg thrice daily,significantly lower
same,histology score for cartilage damage,[6]; [9],significantly reduced
same,histology score for erosion,[6]; [9],significantly reduced
same,histology score for inflammation,[6]; [9],significantly reduced
same,adverse effects,"[6]; throughout the 14-day study period, CAIA mice, oral gavage 20 mg thrice daily",No adverse effects
CC(=O)N[C@H]1[C@H]([C@H](O)[C@H](O)CO)O[C@@](O[C@H]2[C@@H](O)[C@@H](CO)O[C@@H](O[C@H]3[C@H](O)[C@@H](O)C(O)O[C@@H]3CO)[C@@H]2O)(C(=O)O)C[C@@H]1O (stereo partly drawn) [Sialyllactose],inhibition of writhing,[7],causes inhibition of writhing
